Laboratory results taken from patent US20240326697A1, “SOLID FORMS OF SELECTIVE ANDROGEN RECEPTOR MODULATORS” (priority 2007, published 2024).
≈ marks a conversion by molar mass, not a printed value. Marks after values point to notes of the source that are not given here.

How the values were obtained:
Type in all cases: physicochemical
[1] = Dynamic vapor sorption (DVS); details: 25° C.
Description: Dynamic vapor sorption quantification relates the mass of water absorbed and subsequently desorbed during the crystallization process. In order to define whether batch P1, P2 and P4 are hydrated polymorphs, DVS measurements were conducted (FIG. 9). A sample (13 to 14 mg) was placed on a Pt pan, and the sample was allowed to equilibrate at 25° C./50% r.h. before starting a pre-defined humidity program (1.0 hours 50%, from 50% r.h. to 95% r.h.: 5% r.h./hour, 10 hours at 95% r.h., from 95% r.h. to 0% r.h.: 5% r.h./hour, 10 hours at 0% r.h., from 0% r.h. to 50% r.h.: 5% r.h./hour, 1 hours at 50% r.h.

[2] = Relative stability of polymorphic forms under humid conditions (storage, DSC)
Description: (§1) Thermal analysis was carried out with a Perkin Elmer DSC7 with the following experimental conditions: 3 to 6 mg sample mass, closed gold sample pan, temperature range −50° C. to 120° C., heating rate 20 K/min. The samples were weighed in air or dry N2 atmosphere. Additional thermal analysis was conducted using a TA Instruments Q1000 DSC using hermetic aluminum pans under various conditions.
Polymorph A stays stable in its A form for at least 7 days under storage conditions of ambient temperature/75% RH (Relative Humidity), ambient temperature/100% RH, 30° C./75% RH and 50° C./0% RH.
In fact, polymorph D in the presence of moisture acts as the seed for the crystallization process and drives the transformation of polymorphs A and B′ into D, similar to its role in seeding the A to D crystallization in dry conditions. […] The amount of polymorph D initially added to the sample is very small that it isn't detectable by the DSC with heating rate of 10° C./min. […] The transformation process is speeded up in FIG. 17G (b) by storing the sample in water at 50° C. […] Further work has shown that the A and B′ convert to D in the presence of moisture at lower temperatures also albeit at slower rates.

[3] = Water solubility of solid forms A and B′ (suspension shaken, filtered, HPLC; residue by Raman); details: for Solid residue: Raman, rough estimate
Description: During the following experiments: suspension equilibration, precipitation experiment, recrystallization, relative stability experiments and water solubility experiment, a filtration step was conducted. Centrifugal filter devices: Ultrafree-CL (0.22 la,m), Millipore; Centrifuge type or Eppendorf 5804R were used at a temperature of 22° C. and centrifugation program of 2 min 3000 rpm.
HPLC was used to analyse the purity of S-1. HP 1090M HPLC machine was used with the following conditions: • Column: Symmetry Shield RP18, 3.9×150 mm, 5 μm • Column temperature: 35° C. • Injection volume: 10 μL • Solvent: acetonitrile+water 1:1 v/v • Mobile phase A: 0.1% TFA-water • Mobile phase B: 0.1% TFA-acetonitrile • Flow rate: 1 mL/min. • Detection: UV at 271 nm • Run time: 21 min. • Retention time (S-1): 10.7 min.
Suspensions of the solid forms (25 or 50 mg in 3.5 or 7.0 ml bidistilled water) were shaken (800 rpm) and filtered after 0.5 h, 1.5 h, 4 h and 20 h. After filtration the solid residue was checked by Raman spectroscopy and the concentration in the clear solution was determined by HPLC.

[4] = Suspension equilibration experiments; details: stirred 20 h/23° C.
Description: Suspension equilibration experiments were carried out with 81-128 mg of the compound. The suspensions were stirred with a magnetic stirrer. The samples obtained after filtration were air dried at ambient temperature for a short time only to prevent possible desolvation of labile hydrates or solvates.

[5] = Relative stability of polymorphic forms under dry conditions (heating, micronization)
Description: as §1
Thus forms A and B″ can be considered to be practically stable at ambient temperature. […] Micronization of the polymorph A particles under dry conditions also produced ˜25% conversion to B″.

[6] = Measurement of the approximate solubility (solvent added in steps to the solid); details: 23 °C, read-out: Solubility
Description: To determine the approximate solubility at room temperature, the solvent was added in steps to the solid material. After every addition, the sample was well stirred. The addition of solvent was continued until complete dissolution or until 15 ml of solvent was added.

[7] = Water vapor sorption (humidity chamber) and aqueous suspension, form produced; details: for form B′ formed: powder stored in humidified chamber 96% r.h./23° C. (room temperature), 11 weeks, Raman and DSC
Description: The compound was stored in a glass tube under 96% r.h. (relative humidity) in a humidity chamber at room temperature. After different time of storage Raman measurements were conducted using hermetically closed glass tubes.

C[C@](O)(COc1ccc(C#N)cc1)C(=O)Nc1ccc(C#N)c(C(F)(F)F)c1 [Form A, (S)-N-(4-cyano-3-(trifluoromethyl)phenyl)-3-(4-cyanophenoxy)-2-hydroxy-2-methylpropanamide]
maximum water content at 93% r.h. [1]: 1.5%
solid form change, seeded with a small amount of D ([2]; 50° C./75% RH, after 24 hours): most of the polymorph form A has been converted to B′ but a small amount of sample has also been converted to D
time stable in its A form on storage ([2]; each of ambient temperature/75% RH, ambient temperature/100% RH, 30° C./75% RH and 50° C./0% RH): at least 7 days
stable through (storage time) ([2]; stored at 25° C./60% RH): ≥ 36 months
stable through (storage time) ([2]; stored at 30° C./65% RH): ≥ 9 months
solid form change on storage ([2]; stored at 40° C./75% RH): converts to B′ when stored at 40° C./75% RH within one month
solid form change on storage ([2]; stored at 40° C./75% RH, listed as polymorph A): converted to B′ within one month
solid form change on storage ([2]; stored at 50° C./75% RH): converts to B′
solid form change, seeded with a small amount of D ([2]; stored in water at 50° C., after 6 hours): converted to both B′ and D
solid form change, seeded with a small amount of D ([2]; stored in water at 50° C., by 24 hours): predominantly in form D
solubility in water ([3]; 22° C., stated as embodiment): 0.023 to 0.027 mg/mL
Solid residue ([3]; water, 22° C., 0.5 h): A + B′ (approx. 95% + 5%) ^c)
Solid residue ([3]; water, 22° C., 1.5 h): A + B′ (approx. 90% + 10%) ^c)
Solid residue ([3]; water, 22° C., 4.0 h): A + B′ (approx. 85% + 15%) ^c)
Solid residue ([3]; water, 22° C., 20 h): A + B′ (approx. 75% + 25%) ^c)
pH of the solution ([3]; water, 22° C., 20 h suspension equilibration): ^d) pH of the solution: 8.7
solubility ([3]; water, 22° C., suspension equilibration time 0.5 h, mean of two measurements (±standard deviation)): 21.0 ± 3.9 mg/1000 ml
solubility ([3]; water, 22° C., suspension equilibration time 1.5 h, mean of two measurements (±standard deviation)): 24.0 ± 1.4 mg/1000 ml
solubility ([3]; water, 22° C., suspension equilibration time 1.5 h, mean of two measurements (±standard deviation), listed as A): 24.0±1.4 mg/1000 ml
solubility ([3]; water, 22° C., suspension equilibration time 4.0 h, mean of two measurements (±standard deviation)): 27.6 ± 1.5 mg/1000 ml
solubility ([3]; water, 22° C., suspension equilibration time 20 h, mean of two measurements (±standard deviation)): 24.5 ± 1.7 ^d) mg/1000 ml
solubility ([3]; water, 22 °C, water, thermodynamic from solid, stated as embodiment, read-out: solubility in water): 0.02 to 0.03 mg/mL (≈ 0.0514 to 0.0771 mM)
Form produced ([4]; ethyl formate + n-pentane 1:2 v/v 112/2.0 mg/ml): no transformation of solid form A
Form produced ([4]; methyl acetate + n-pentane 1:2 v/v 126/2.0 mg/ml): no transformation of solid form A
solid form change on heating ([5]; heating to 110° C. in the presence of D): rearrange into D
conversion to B″ ([5]; micronization of the particles under dry conditions): ~25%
solubility ([6]; 1,4-dioxane, organic solvent or mixture, thermodynamic from solid, 1,4-dioxane, 23° C.): > 200 mg/mL
solubility ([6]; TBME, organic solvent or mixture, thermodynamic from solid, TBME, 23° C.): > 200 mg/mL
solubility ([6]; THF, organic solvent or mixture, thermodynamic from solid, THF, 23° C.): > 200 mg/mL
solubility ([6]; THF/n-heptane 1:1 v/v, organic solvent or mixture, thermodynamic from solid, THF/n-heptane 1:1 v/v, 23° C.): > 200 mg/mL
solubility ([6]; THF/n-heptane 1:3 v/v, organic solvent or mixture, thermodynamic from solid, THF/n-heptane 1:3 v/v, 23° C.): 65 mg/mL (≈ 167 mM)
solubility ([6]; acetic acid, organic solvent or mixture, thermodynamic from solid, acetic acid, 23° C.): > 200 mg/mL
solubility ([6]; acetone, organic solvent or mixture, thermodynamic from solid, acetone, 23° C.): > 200 mg/mL
solubility ([6]; acetone/n-heptane 1:1 v/v, organic solvent or mixture, thermodynamic from solid, acetone/n-heptane 1:1 v/v, 23° C.): > 200 mg/mL
solubility ([6]; acetone/n-heptane 1:3 v/v, organic solvent or mixture, thermodynamic from solid, acetone/n-heptane 1:3 v/v, 23° C.): 90 mg/mL (≈ 231 mM)
solubility ([6]; acetonitrile, organic solvent or mixture, thermodynamic from solid, acetonitrile, 23° C.): > 200 mg/mL
solubility ([6]; acetonitrile/toluene 1:1 v/v, organic solvent or mixture, thermodynamic from solid, acetonitrile/toluene 1:1 v/v, 23° C.): > 200 mg/mL
solubility ([6]; acetonitrile/toluene 1:3 v/v, organic solvent or mixture, thermodynamic from solid, acetonitrile/toluene 1:3 v/v, 23° C.): 170 mg/mL (≈ 437 mM)
solubility ([6]; dichloromethane, organic solvent or mixture, thermodynamic from solid, dichloromethane, 23° C.): > 200 mg/mL
solubility ([6]; ethanol, organic solvent or mixture, thermodynamic from solid, ethanol, 23° C.): > 200 mg/mL
solubility ([6]; ethanol/n-heptane 1:1 v/v, organic solvent or mixture, thermodynamic from solid, ethanol/n-heptane 1:1 v/v, 23° C.): 180 mg/mL (≈ 462 mM)
solubility ([6]; ethanol/n-heptane 1:3 v/v, organic solvent or mixture, thermodynamic from solid, ethanol/n-heptane 1:3 v/v, 23° C.): 50 mg/mL (≈ 128 mM)
solubility ([6]; ethanol/water 1:1 v/v, aqueous with cosolvent or surfactant or cyclodextrin, thermodynamic from solid, ethanol/water 1:1 v/v, 23° C.): 50 mg/mL (≈ 128 mM)
solubility ([6]; ethanol/water 1:3 v/v, aqueous with cosolvent or surfactant or cyclodextrin, thermodynamic from solid, ethanol/water 1:3 v/v, 23° C.): < 5 mg/mL
solubility ([6]; ethanol/water 3:1 v/v, aqueous with cosolvent or surfactant or cyclodextrin, thermodynamic from solid, ethanol/water 3:1 v/v, 23° C.): > 200 mg/mL
solubility ([6]; ethyl acetate, organic solvent or mixture, thermodynamic from solid, ethyl acetate, 23° C.): > 200 mg/mL
solubility ([6]; ethyl acetate/n-heptane 1:1 v/v, organic solvent or mixture, thermodynamic from solid, ethyl acetate/n-heptane 1:1 v/v, 23° C.): 65 mg/mL (≈ 167 mM)
solubility ([6]; ethyl acetate/n-heptane 1:2 v/v, organic solvent or mixture, thermodynamic from solid, ethyl acetate/n-heptane 1:2 v/v, 23° C. (B′: solid form transformation into solid form A)): 9 mg/mL (≈ 23.1 mM)
solubility ([6]; ethyl acetate/n-heptane 1:3 v/v, organic solvent or mixture, thermodynamic from solid, ethyl acetate/n-heptane 1:3 v/v, 23° C. (turbid solution)): < 5 mg/mL
solubility ([6]; ethyl acetate/n-pentane 1:2 v/v, organic solvent or mixture, thermodynamic from solid, ethyl acetate/n-pentane 1:2 v/v, 23° C.): 13 mg/mL (≈ 33.4 mM)
solubility ([6]; ethyl formate/n-pentane 1:2 v/v, organic solvent or mixture, thermodynamic from solid, ethyl formate/n-pentane 1:2 v/v, 23° C.): 12 mg/mL (≈ 30.8 mM)
solubility ([6]; methyl acetate/n-pentane 1:2 v/v, organic solvent or mixture, thermodynamic from solid, methyl acetate/n-pentane 1:2 v/v, 23° C.): 8 mg/mL (≈ 20.5 mM)
solubility ([6]; toluene, organic solvent or mixture, thermodynamic from solid, toluene, 23° C. (turbid solution)): < 6 mg/mL
form B′ formed ([7]; listed as A): ~20% form B′
form B′ formed ([7]; listed as form A): approx. 20%
Form produced ([7]; powder stored in humidified chamber 96% r.h./23° C., 4 weeks): A + small
Form produced ([7]; powder stored in humidified chamber 96% r.h./23° C., 9 weeks): A + form B′
Form produced ([7]; suspension in water 111/5.0 mg/ml, sonication 5 min., stirred 19 h/37° C., filtered & air dried): B′
Form produced ([7]; water + 5% acetic acid v/v 105/2.0 mg/ml, stirred 17 h/40° C., cooled to R.T. and removed solution): B′
Form produced ([7]; water + 5% ethanol v/v 123/2.1 mg/ml, stirred 3 h/83° C., cooled to 47° C. within 1.5 h, filtered & air dried): B′
